# Measured values reported in PMC12702776 (Cancer Gene Therapy, 2025).
# Assays:
# DOCK2 = target: T1, DOCK2 (Homo sapiens, UniProt Q92608); assay: Active GTPase pull-down assay in IGR1 melanoma cells treated with DOCK2 inhibitor; assay type: cell-based; settings: serum-stimulated IGR1 cells, 25 µM and 100 µM
# T1 construct: endogenous in cells; host or cells: IGR1 human melanoma cells
# Protocol: HEK-293T and IGR1 human melanoma cells were cultured under serum-stimulated and serum-starved conditions in DMEM supplemented with 10% FBS and 1% penicillin/streptomycin. The HEK-293T cells were then transfected with RAC1 constructs containing N-terminal 10×His–triple FLAG tags using TurboFect™ (Thermo Fisher Scientific), according to the manufacturer’s protocol. The HEK-293T cells were cultured and harvested under serum-stimulated or serum-starved conditions without additional treatment. IGR1 cells, in contrast, were treated with the DOCK2 inhibitor CPYPP (MedChemExpress) at 25 µM and 100 µM concentrations, with 0.5% DMSO as a vehicle control. After treatment, cells were harvested and lysed, and protein concentrations were determined using the Bradford assay. Detailed protocols, including buffer compositions, are provided in the Supplementary Information.
# Experiments were conducted under both serum-stimulated and serum-starved conditions, as described previously. […] After incubation, the beads were washed and analyzed by SDS-PAGE followed by immunoblotting. […]
# Cell culture, transfection, and treatment. […] The resulting supernatants were collected for downstream applications, and protein concentrations were determined using the Bradford assay.
# Active GTPase pull-down assay. […] Samples were analyzed by SDS-PAGE and immunoblotting […]
# DHR2 domain of DOCK2 = test system: DHR2 domain of DOCK2; set-up: method as in PMID 22520755; settings: cited from earlier work
# IGR1 cells = settings: cited from earlier work
# RAC1^WT = target: T2, RAC1^WT (Homo sapiens, UniProt P63000); assay: Nucleotide-binding assay (stopped-flow fluorimetry)
# T2 construct: GST (N); made in house; host or cells: Escherichia coli
# Protocol: (§1) The nucleotide-binding properties of RAC1 GTPases were assessed by stopped-flow fluorimetry, as described. Nucleotide association and dissociation rates were measured using fluorescent nucleotides (mdGDP and mGppNHp) and varying RAC1 concentrations. Association (kon) and dissociation (koff) rate constants were determined, and equilibrium dissociation constants (Kd) were calculated as described in Box 2. Detailed procedures are provided in the Supplementary Materials.
# (§2) Nucleotide-binding assay. The nucleotide-binding properties of the RAC1 GTPases were assessed using a stopped-flow fluorimetry approach, as described (10). ucleotide association was measured with 0.1 µM fluorescently labeled nucleotides, such as mdGDP and mGppNHp, and varying concentrations of nucleotide-free RAC1 proteins (0.25–5 μM). Measurements were conducted in a buffer containing 30 mM Tris-HCl, pH 7.5, 10 mM KH2PO4/K2HPO4, 5 mM MgCl2, and 3 mM DTT, at 25 °C. The association rate constant (kon) was determined by plotting the observed rate constants (kobs) against the concentration of nucleotide-free RAC1 and analyzing the slope via linear regression using Origin software. The dissociation rate constant (koff) of the fluorescent nucleotide from RAC1 proteins (0.1 µM) was measured by adding a 200-fold excess of the non-fluorescent nucleotide (20 µM). The affinity of RAC1 proteins for GDP and GppNHp was calculated by dividing koff by kon, yielding the equilibrium dissociation constants (Kd), as defined in Box 2 of the main text.
# RAC1^P29S = target: T3, RAC1^P29S (Homo sapiens, UniProt P63000, P29S); assay: as above; settings: RAC1 P29S compared to RAC1 WT
# T3 construct: GST (N); made in house; host or cells: Escherichia coli
# Protocol: as §1, §2
# RAC1^T17N = target: T4, RAC1^T17N (Homo sapiens, UniProt P63000, T17N); assay: as above
# T4 construct: GST (N); made in house; host or cells: Escherichia coli
# Protocol: as §1, §2
# RAC1^F28L = target: T5, RAC1^F28L (Homo sapiens, UniProt P63000, F28L); assay: as above; settings: faster than RAC1 WT
# T5 construct: GST (N); made in house; host or cells: Escherichia coli
# Protocol: as §1, §2
# T1 sequence (Q92608 whole entry): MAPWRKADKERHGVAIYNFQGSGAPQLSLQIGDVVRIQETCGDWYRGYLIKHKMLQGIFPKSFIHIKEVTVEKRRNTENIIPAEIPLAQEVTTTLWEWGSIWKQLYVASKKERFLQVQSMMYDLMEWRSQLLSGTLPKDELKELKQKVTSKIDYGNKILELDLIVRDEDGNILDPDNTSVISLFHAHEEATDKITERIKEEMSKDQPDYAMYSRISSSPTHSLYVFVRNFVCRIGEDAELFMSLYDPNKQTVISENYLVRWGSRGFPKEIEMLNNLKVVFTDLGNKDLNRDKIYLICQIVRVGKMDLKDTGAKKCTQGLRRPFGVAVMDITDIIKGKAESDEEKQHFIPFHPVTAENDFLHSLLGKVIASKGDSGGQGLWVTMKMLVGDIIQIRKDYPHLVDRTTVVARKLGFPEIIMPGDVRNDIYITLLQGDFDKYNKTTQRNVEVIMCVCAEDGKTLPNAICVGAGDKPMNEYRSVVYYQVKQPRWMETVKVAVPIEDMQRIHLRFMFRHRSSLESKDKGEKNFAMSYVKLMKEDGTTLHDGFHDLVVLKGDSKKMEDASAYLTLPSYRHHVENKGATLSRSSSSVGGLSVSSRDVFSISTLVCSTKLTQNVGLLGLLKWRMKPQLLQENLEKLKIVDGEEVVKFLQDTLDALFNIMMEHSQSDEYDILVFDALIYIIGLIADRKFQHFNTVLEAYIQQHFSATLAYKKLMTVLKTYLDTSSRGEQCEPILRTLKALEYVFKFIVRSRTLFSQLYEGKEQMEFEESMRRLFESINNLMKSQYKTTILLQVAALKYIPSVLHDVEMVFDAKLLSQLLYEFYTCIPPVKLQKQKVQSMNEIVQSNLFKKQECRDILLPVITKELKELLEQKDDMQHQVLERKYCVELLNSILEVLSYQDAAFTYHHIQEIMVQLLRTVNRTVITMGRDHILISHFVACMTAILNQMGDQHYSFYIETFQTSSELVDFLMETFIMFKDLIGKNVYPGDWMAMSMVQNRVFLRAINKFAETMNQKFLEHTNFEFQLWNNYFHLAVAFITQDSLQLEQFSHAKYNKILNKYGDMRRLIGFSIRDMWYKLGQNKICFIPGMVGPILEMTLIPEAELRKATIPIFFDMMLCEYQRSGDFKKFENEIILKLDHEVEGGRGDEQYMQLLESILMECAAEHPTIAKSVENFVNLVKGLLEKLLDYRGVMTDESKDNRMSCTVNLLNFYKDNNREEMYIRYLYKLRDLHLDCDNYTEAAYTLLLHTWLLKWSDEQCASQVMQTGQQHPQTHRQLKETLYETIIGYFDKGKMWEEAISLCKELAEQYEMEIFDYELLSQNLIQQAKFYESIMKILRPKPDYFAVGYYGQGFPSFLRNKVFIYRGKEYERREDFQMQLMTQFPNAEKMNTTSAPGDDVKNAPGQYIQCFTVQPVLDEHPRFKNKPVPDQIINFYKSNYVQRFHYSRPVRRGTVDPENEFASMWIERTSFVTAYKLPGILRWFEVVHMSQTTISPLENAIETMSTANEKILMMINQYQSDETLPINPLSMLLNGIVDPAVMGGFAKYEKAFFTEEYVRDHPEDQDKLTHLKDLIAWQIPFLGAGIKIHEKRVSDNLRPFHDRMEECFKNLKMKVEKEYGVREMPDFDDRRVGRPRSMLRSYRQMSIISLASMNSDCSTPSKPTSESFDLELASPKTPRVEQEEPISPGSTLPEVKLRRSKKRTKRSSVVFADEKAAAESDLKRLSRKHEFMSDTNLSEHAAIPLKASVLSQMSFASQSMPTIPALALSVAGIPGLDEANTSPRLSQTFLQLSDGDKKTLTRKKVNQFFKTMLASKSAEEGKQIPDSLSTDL
Kd (RAC1^WT),"Kd, lower affinity P29S vs WT (RAC1^P29S)","kon, reduction P29S vs WT (RAC1^P29S)",Compound,"sensitivity of IGR1 cells (RAC1^P29S, BRAF^V600K) (IGR1 cells)",further results
,,,O=C1NN(c2ccccc2)C(=O)/C1=C/C=C/c1ccccc1Cl [CPYPP],,effect on RAC1^P29S activation (DOCK2): reduced RAC1^P29S activation in a dose-dependent manner; effect on DOCK2 catalytic activity (DHR2 domain of DOCK2): reversibly blocking its catalytic activity
,,,CC(C)(C)c1nc(-c2cccc(NS(=O)(=O)c3c(F)cccc3F)c2F)c(-c2ccnc(N)n2)s1 [dabrafenib],reduced sensitivity,
0.3 nM,147 fold,14 fold,"CNc1ccccc1C(=O)O[C@H]1C[C@H](n2cnc3c(=O)[nH]c(N)nc32)O[C@@H]1COP(=O)(O)OP(=O)(O)O [mdGDP, methylanthraniloyl-2'-deoxy-guanosine 5′-diphosphate]",,"koff, increase P29S vs WT (RAC1^P29S): 10 fold; decrease in binding affinity, T17N vs WT (RAC1^T17N; RAC1 T17N compared to RAC1 WT): 1346 fold; dissociation rate, T17N vs WT (RAC1^T17N; higher than RAC1 WT): 410 fold; intrinsic nucleotide dissociation rate, F28L vs WT (RAC1^F28L): 20 fold"
,,,CCCS(=O)(=O)Nc1ccc(F)c(C(=O)c2c[nH]c3ncc(-c4ccc(Cl)cc4)cc23)c1F [vemurafenib],reduced sensitivity,
0.6 nM,289 fold,27 fold,"methylanthraniloyl guanosine 5'-[beta,gamma-imido]triphosphate [mGppNHp]",,
